Source: PubChem BioAssay (NCI)
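Results reflect a 48-hour exposure of cells in 96-well plates to compound at five concentrations. TGI: concentration producing complete growth inhibition.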

Legend:
Experiment in all cases: DTP human tumour cell line panel, 48 h
HCT-116 colon = tested on: HCT-116 colon
786-0 renal = tested on: 786-0 renal
MDA-N = tested on: MDA-N
MDA-MB-435 = tested on: MDA-MB-435
OVCAR-5 ovarian = tested on: OVCAR-5 ovarian
EKVX NSCLC = tested on: EKVX NSCLC
SK-OV-3 ovarian = tested on: SK-OV-3 ovarian
A549 NSCLC = tested on: A549 NSCLC
UACC-257 melanoma = tested on: UACC-257 melanoma
SN12C renal = tested on: SN12C renal
OVCAR-8 ovarian = tested on: OVCAR-8 ovarian
T-47D breast = tested on: T-47D breast
TK-10 renal = tested on: TK-10 renal
HT29 colon = tested on: HT29 colon
OVCAR-3 ovarian = tested on: OVCAR-3 ovarian
NCI/ADR-RES ovarian = tested on: NCI/ADR-RES ovarian
CAKI-1 renal = tested on: CAKI-1 renal
HOP-62 NSCLC = tested on: HOP-62 NSCLC
UACC-62 melanoma = tested on: UACC-62 melanoma
HCT-15 colon = tested on: HCT-15 colon
HCC-2998 colon = tested on: HCC-2998 colon
SW-620 colon = tested on: SW-620 colon
HL-60(TB) leukemia = tested on: HL-60(TB) leukemia
NCI-H23 lung = tested on: NCI-H23 lung
MDA-MB-231 breast = tested on: MDA-MB-231 breast
NCI-H460 lung = tested on: NCI-H460 lung
CCRF-CEM leukemia = tested on: CCRF-CEM leukemia
RPMI-8226 leukemia = tested on: RPMI-8226 leukemia
SR leukemia = tested on: SR leukemia
M14 melanoma = tested on: M14 melanoma
SF-539 CNS = tested on: SF-539 CNS
KM12 colon = tested on: KM12 colon
SK-MEL-5 melanoma = tested on: SK-MEL-5 melanoma
IGROV1 ovarian = tested on: IGROV1 ovarian
LOX IMVI melanoma = tested on: LOX IMVI melanoma
SF-268 CNS = tested on: SF-268 CNS
DU-145 prostate = tested on: DU-145 prostate
OVCAR-4 ovarian = tested on: OVCAR-4 ovarian
NCI-H522 lung = tested on: NCI-H522 lung
K-562 leukemia = tested on: K-562 leukemia
SNB-19 CNS = tested on: SNB-19 CNS
MALME-3M melanoma = tested on: MALME-3M melanoma
U251 CNS = tested on: U251 CNS
COLO 205 colon = tested on: COLO 205 colon
MCF7 breast = tested on: MCF7 breast
SK-MEL-28 melanoma = tested on: SK-MEL-28 melanoma
BT-549 breast = tested on: BT-549 breast
ACHN renal = tested on: ACHN renal
RXF 393 renal = tested on: RXF 393 renal
MOLT-4 leukemia = tested on: MOLT-4 leukemia
A498 renal = tested on: A498 renal
SF-295 CNS = tested on: SF-295 CNS
HS 578T breast = tested on: HS 578T breast
PC-3 prostate = tested on: PC-3 prostate
SK-MEL-2 melanoma = tested on: SK-MEL-2 melanoma
HOP-92 NSCLC = tested on: HOP-92 NSCLC
NCI-H226 lung = tested on: NCI-H226 lung
UO-31 renal = tested on: UO-31 renal
SNB-75 CNS = tested on: SNB-75 CNS

Measured: TGI

N#Cc1[nH]c(=O)n(-c2cccc3ccccc23)c1N
not listed: HOP-92 NSCLC | NCI-H226 lung | UO-31 renal | SNB-75 CNS
> 10 µM: all other assays above

CCCCCC[C@H]1C(=O)O[C@H](C)[C@H](NC(=O)c2cccc(NC=O)c2OC)C(=O)O[C@@H](C)[C@@H]1OC(=O)CC(C)C (tested in a mixture with another compound)
78.3 µM: SF-539 CNS | MCF7 breast
30.4 µM: OVCAR-8 ovarian
91.7 µM: MDA-MB-231 breast
39.2 µM: SK-OV-3 ovarian
50.3 µM: HCT-116 colon
48.3 µM: NCI-H23 lung
49.2 µM: ACHN renal
36 µM: SR leukemia
50.8 µM: TK-10 renal
21.4 µM: A549 NSCLC
85.3 µM: CCRF-CEM leukemia
22.5 µM: OVCAR-3 ovarian
38.7 µM: SK-MEL-5 melanoma
24.9 µM: OVCAR-4 ovarian
81.2 µM: HOP-92 NSCLC
34.1 µM: U251 CNS
55.7 µM: UACC-257 melanoma
57.3 µM: CAKI-1 renal
84.9 µM: NCI/ADR-RES ovarian
34.7 µM: COLO 205 colon
47.2 µM: A498 renal
not listed: IGROV1 ovarian | SNB-19 CNS | SNB-75 CNS
> 100 µM: all other assays above

CCOP(=O)(OCC)C1=C(c2ccccc2)OC(N)=C(C#N)C1c1ccc(Cl)cc1 (centres undefined)
not listed: HS 578T breast
> 100 µM: all other assays above
